# Measurements: patent publication US12459899B2, “Isoquinolinone derivatives, method for preparing the same, and pharmaceutical composition for preventing or treating poly(ADP-ribose) polymerase-1-related diseases, comprising the same as active ingredient” (DIGMBIO. INC., priority 2019, dated 2025)
# Target: PARP-1 (poly[ADP-ribose] polymerase 1) enzyme (Homo sapiens (Human), UniProt P09874)
# Assay: PARP-1 (poly[ADP-ribose] polymerase 1) enzyme inhibitory ability, Trevigen assay kit
# Format: biochemical
# Conditions: 1 nM compound; read-out: PAR P-1 Inhibitory ability at 1 nM
# Summary of the method: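 After the 1 hour PARP reaction, wells were washed with PBS containing 0.1% triton X-100 and then PBS. Strep-HRP (50 μL) was bound for 1 hour, wells washed again, and 50 μL of TACS-sapphire substrate developed 15 minutes in the dark. Reactions were stopped with 50 μL of 5% phosphoric acid and absorbance read at 450 nm on a Victor3 reader.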
# Sequence of PARP-1 (poly[ADP-ribose] polymerase 1) enzyme (P09874 whole entry): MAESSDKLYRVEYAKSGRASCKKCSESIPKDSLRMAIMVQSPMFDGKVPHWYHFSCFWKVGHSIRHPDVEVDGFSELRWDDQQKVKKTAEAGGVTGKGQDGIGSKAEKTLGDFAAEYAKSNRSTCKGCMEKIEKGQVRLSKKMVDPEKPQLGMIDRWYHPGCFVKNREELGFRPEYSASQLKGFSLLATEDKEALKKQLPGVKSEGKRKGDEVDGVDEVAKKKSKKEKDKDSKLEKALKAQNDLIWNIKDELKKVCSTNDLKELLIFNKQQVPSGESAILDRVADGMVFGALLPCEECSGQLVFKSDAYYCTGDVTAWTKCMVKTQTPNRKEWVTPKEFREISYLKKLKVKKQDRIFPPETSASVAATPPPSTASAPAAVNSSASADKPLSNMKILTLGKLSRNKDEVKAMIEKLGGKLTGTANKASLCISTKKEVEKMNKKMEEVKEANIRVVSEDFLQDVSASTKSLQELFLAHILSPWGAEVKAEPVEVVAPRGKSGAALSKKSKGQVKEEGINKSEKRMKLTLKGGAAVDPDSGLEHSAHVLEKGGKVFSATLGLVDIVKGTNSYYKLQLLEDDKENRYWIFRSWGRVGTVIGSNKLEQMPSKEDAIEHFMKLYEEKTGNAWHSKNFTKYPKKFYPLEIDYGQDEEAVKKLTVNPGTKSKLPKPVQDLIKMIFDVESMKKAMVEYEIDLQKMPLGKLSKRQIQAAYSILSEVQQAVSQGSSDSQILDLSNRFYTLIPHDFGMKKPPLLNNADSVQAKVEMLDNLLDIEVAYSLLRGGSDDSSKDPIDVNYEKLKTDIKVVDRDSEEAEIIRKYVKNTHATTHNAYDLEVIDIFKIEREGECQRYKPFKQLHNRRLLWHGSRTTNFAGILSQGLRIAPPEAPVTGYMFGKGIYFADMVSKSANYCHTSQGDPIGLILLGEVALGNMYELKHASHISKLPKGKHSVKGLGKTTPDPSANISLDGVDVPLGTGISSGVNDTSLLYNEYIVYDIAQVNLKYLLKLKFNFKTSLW
row,Structure (SMILES),inhibition at 0.001 µM [%]
1,"N#Cc1ccc(N2CC3CCC(C2)N3CCCc2cc3ncccc3c(=O)[nH]2)cc1 [Example 225, 4-(8-(3-(5-oxo-5,6-dihydro-1,6-naphthyridin-7-yl)propyl)-3,8-diazabicyclo[3.2.1]octan-3-yl)benzonitrile]",> 80
2,"N#Cc1ccc(N2CCN(CCCc3cc4ncccc4c(=O)[nH]3)CC2)cn1 [Example 226, 5-(4-(3-(5-oxo-5,6-dihydro-1,6-naphthyridin-7-yl)propyl)piperazin-1-yl)picolinonitrile]",< 50
3,"O=c1[nH]c(CCCN2CCN(c3ccnc(F)c3)CC2)cc2ncccc12 [Example 227, 7-(3-(4-(2-fluoropyridin-4-yl)piperazin-1-yl)propyl)-1,6-naphthyridin-5(6H)-one]",< 50
4,"N#Cc1ccc(N2CC3CCC(C2)N3CCCc2cc3ncccc3c(=O)[nH]2)cn1 [Example 229, 5-(8-(3-(5-oxo-5,6-dihydro-1,6-naphthyridin-7-yl)propyl)-3,8-diazabicyclo[3.2.1]octan-3-yl)picolinonitrile]",< 50
5,O=c1[nH]c(CCCN2C3CCC2CN(c2ccc(F)cc2)C3)cc2ncccc12 [Example 230],< 50
6,"O=c1[nH]c(CCCN2C3CCC2CN(c2ccc(F)cn2)C3)cc2ncccc12 [Example 231, 7-(3-(3-(5-fluoropyridin-2-yl)-3,8-diazabicyclo[3.2.1]octan-8-yl)propyl)-1,6-naphthyridin-5(6H)-one]",< 50
7,"N#Cc1ccc(N2CC3CCC(C2)N3CCCc2cc3ncccc3c(=O)[nH]2)nc1 [Example 232, 6-(8-(3-(5-oxo-5,6-dihydro-1,6-naphthyridin-7-yl)propyl)-3,8-diazabicyclo[3.2.1]octan-3-yl)nicotinonitrile]",< 50
8,"O=c1[nH]c(CCCN2C3CCC2CN(c2ccc(F)nc2)C3)cc2ncccc12 [Example 233, 7-(3-(3-(6-fluoropyridin-3-yl)-3,8-diazabicyclo[3.2.1]octan-8-yl)propyl)-1,6-naphthyridin-5(6H)-one]",50 to 80
9,"N#Cc1ccc(C2=CCN(CCCc3cc4ncccc4c(=O)[nH]3)CC2)cn1 [Example 234, 1′-(3-(5-oxo-5,6-dihydro-1,6-naphthyridin-7-yl)propyl)-1′,2′,3′,6′-tetrahydro-[3,4′-bipyridine]-6-carbonitrile]",< 50
10,"N#Cc1ccc(C2=CCN(CCCc3cc4ncccc4c(=O)[nH]3)CC2)nc1 [Example 235, 1′-(3-(5-oxo-5,6-dihydro-1,6-naphthyridin-7-yl)propyl)-1′,2′,3′,6′-tetrahydro-[2,4′-bipyridine]-5-carbonitrile]",< 50
11,"O=c1[nH]c(CCCN2CC=C(c3ccc(F)cc3)CC2)cc2ncccc12 [Example 236, 7-(3-(4-(4-fluorophenyl)-3,6-dihydropyridin-1(2H)-yl)propyl)-1,6-naphthyridin-5(6H)-one]",< 50
12,"O=c1[nH]c(CCCN2CC=C(c3ccnc(F)c3)CC2)cc2ncccc12 [Example 237, 7-(3-(2′-fluoro-3,6-dihydro-[4,4′-bipyridine]-1(2H)-yl)propyl)-1,6-naphthyridin-5(6H)-one]",< 50
13,"O=c1[nH]c(CCCN2CC=C(c3cccc(F)c3)CC2)cc2ncccc12 [Example 238, 7-(3-(4-(3-fluorophenyl)-3,6-dihydropyridin-1(2H)-yl)propyl)-1,6-naphthyridin-5(6H)-one]",< 50
14,"N#Cc1ccc(C2=CCN(CCCc3cc4ncccc4c(=O)[nH]3)CC2)cc1 [Example 239, 4-(1-(3-(5-oxo-5,6-dihydro-1,6-naphthyridin-7-yl)propyl)-1,2,3,6-tetrahydropyridin-4-yl)benzonitrile]",50 to 80
15,"O=c1[nH]c(CCCN2CC=C(c3ccncc3)CC2)cc2ncccc12 [Example 240, 7-(3-(3,6-dihydro-[4,4′-bipyridine]-1(2H)-yl)propyl)-1,6-naphthyridin-5(6H)-one]",< 50
